Laboratory results reported in patent US20150209403A1, “Dose Adjustment” (AbbVie Inc., priority 2014, published 2015).

How the values were obtained:
[1] = DDI studies of 3D regimen with HIV-1 protease inhibitors (ATV, DRV, LPV/r); conditions: for Total bilirubin elevation Grade 3, subjects: 3D regimen DDI study; for Cmax, AUC and Ctrough, % change: HIV PI co-administered with 3D regimen; for tolerability: co-administration with 3D regimen
[2] = Drug interaction study of 3D regimen with carbamazepine (CBZ); assay type: in vivo, human
Protocol: Single doses of the 3D regimen (Compound 1/r/ombitasvir 150/100/25 mg+dasabuvir 250 mg) were administered alone and in the presence of steady state CBZ 200 mg BID in 12 healthy subjects. Drug concentrations were determined from blood samples collected on multiple study days and PK parameters were estimated by noncompartmental analyses. Safety was assessed (adverse events, vital signs, ECG, etc.) throughout the study.

[3] = Drug interaction study of 3D or 2D with ketoconazole (KTZ); assay type: in vivo, human
Protocol: Single doses of Compound 1/r/ombitasvir 150/100/25 mg+/−dasabuvir 250 mg were administered alone and in the presence of steady state KTZ 400 mg QD in 24 healthy volunteers. Drug concentrations were determined from intensive blood samples and PK parameters were estimated by noncompartmental analyses. Safety assessment (adverse events, clinical labs, vital signs, ECG) was done throughout the study.

[4] = Drug interaction study of 3D or 2D regimen with omeprazole; conditions: human, in vivo, 40 mg
Protocol: In 24 healthy volunteers omeprazole (40 mg) were administered on day 1 and days 20-24. The 3D or 2D regimen (Compound 1/r 150/100 mg QD+ombitasvir 25 mg QD±dasabuvir 250 mg BID) was administered on days 6-24. Intensive PK sampling was performed for study drugs when dosed alone and during coadministration and parameters estimated by noncompartmental analyses. Safety was evaluated through assessment of adverse events, vital signs, ECG and clinical laboratory tests.

[5] = DDI studies of 3D regimen with HIV-1 N(t)RTIs, NNRTIs and INSTI; assay type: in vivo, human; conditions: for exposures (Cmax and AUCτ), % change: both; for exposures (Cmax and AUCτ), % change / exposures (Cmax and AUCτ), effect: human, in vivo
[6] = Drug interaction study of pravastatin and rosuvastatin with 3D or 2D; assay type: in vivo, human
Protocol: After a washout, multiple doses of pravastatin (10 mg QD, N=12) and rosuvastatin (5 mg QD, N=12) were administered with and without 3D or 2D to steady state in Period 2. […] Intensive PK sampling was performed in both periods and PK parameters estimated by noncompartmental analyses. Safety was evaluated through assessment of adverse events, vital signs, ECG and clinical laboratory tests.

[7] = RPV 75 mg QD; cited from earlier work
[8] = Drug interaction study of 3D or 2D regimen with digoxin; assay type: in vivo, human; conditions: healthy volunteers
Protocol: Single doses of digoxin (0.5 mg) were administered alone and in presence of steady state Compound 1/r 150/100 mg QD+ombitasvir 25 mg QD+/−dasabuvir […] BID in 24 healthy volunteers. Drug concentrations were
determined from intensive blood samples collected on multiple study days and PK parameters were estimated by noncompartmental analyses. Safety was assessed (adverse events, vital signs, ECG, etc.) throughout the study.

[9] = human, in vivo
Text: Safety was monitored throughout the study.

[10] = single dose 3D or 2D with steady state KTZ 400 mg QD
[11] = LPV/r 800/200 mg QPM with 3D regimen

Compound: COC(=O)N[C@H](C(=O)N[C@@H](Cc1ccccc1)[C@@H](O)CN(Cc1ccc(-c2ccccn2)cc1)NC(=O)[C@@H](NC(=O)OC)C(C)(C)C)C(C)(C)C [ATV, Atazanavir]
- Total bilirubin elevation Grade 3, subjects ([1]; ATV QD arm): 10/24
- Total bilirubin elevation Grade 3, subjects ([1]; ATV QPM arm): 16/24
- Ctrough, % higher ([1]; ATV+RTV QPM with 3D regimen): 68%
- Cmax, AUC and Ctrough, % change [1]: ≥ 20%
- tolerability [1]: generally well tolerated

Compound: NC(=O)N1c2ccccc2C=Cc2ccccc21 [CBZ, Carbamazepine]
- Increases in ALT and AST, peak ([2]; 3D coadministered with CBZ): Grade 3 in 1 subject
- exposures, % increase ([2]; CBZ with 3D): ≤ 17%
- tolerability ([2]; coadministration of 3D with CBZ): generally tolerated

Compound: Cc1cnc(C(=O)N[C@H]2CCCCC/C=C\[C@@H]3C[C@@]3(C(=O)NS(=O)(=O)C3CC3)NC(=O)[C@@H]3C[C@@H](Oc4nc5ccccc5c5ccccc45)CN3C2=O)cn1 [Compound 1, (2R,6S,13aS,14aR,16aS,Z)—N-(cyclopropylsulfonyl)-6-(5-methylpyrazine-2-carboxamido)-5,16-dioxo-2-(phenanthridin-6-yloxy)-1,2,3,5,6,7,8,9,10,11,13a,14,14a,15,16,16a-hexadecahydrocyclopropa[e]pyrrolo[1,2-a][1,4]diazacyclopentadecine-14a-carboxamide]
- AUCinf increased by [3, 10]: 98-116%
- Cmax increased by ([3]; single dose 3D or 2D with steady state KTZ 400 mg QD, healthy volunteers): 37-72%
- Cmax, AUC or Ctrough, % change [4]: < 20%
- exposures (Cmax and AUCτ), % higher ([1]; 3D regimen with LPV/r QPM or BID): ≤ 117%
- exposures (Cmax and AUCτ), % change [5]: up to ±32%
- exposures (Cmax and AUCτ), effect [5]: not affected

Compound: COc1c(-c2ccc3cc(NS(C)(=O)=O)ccc3c2)cc(-n2ccc(=O)[nH]c2=O)cc1C(C)(C)C [Compound 2, N-(6-(3-tert-butyl-5-(2,4-dioxo-3,4-dihydropyrimidin-1(2H)-yl)-2-methoxyphenyl)naphthalen-2-yl)methanesulfonamide]
- Exposures increased by [3, 10]: up to 42%
- Cmax, AUC or Ctrough, % change [4]: < 20%
- exposures (Cmax and AUCτ), % change [5]: up to ±18%
- exposures (Cmax and AUCτ), effect [5]: not affected

Compound: COC(=O)N[C@H](C(=O)N1CCC[C@H]1C(=O)Nc1ccc([C@@H]2CC[C@@H](c3ccc(NC(=O)[C@@H]4CCCN4C(=O)[C@@H](NC(=O)OC)C(C)C)cc3)N2c2ccc(C(C)(C)C)cc2)cc1)C(C)C [Compound 3]
- Exposures increased by [3, 10]: up to 26%
- exposures (Cmax and AUCτ), % change [5]: up to ±11%
- exposures (Cmax and AUCτ), effect [5]: not affected

Compound: CC(C)CN(C[C@@H](O)[C@H](Cc1ccccc1)NC(=O)O[C@H]1CO[C@H]2OCC[C@H]21)S(=O)(=O)c1ccc(N)cc1 [DRV, Darunavir]
- tolerability [1]: generally well tolerated

Compound: CC(=O)N1CCN(c2ccc(OCC3COC(Cn4ccnc4)(c4ccc(Cl)cc4Cl)O3)cc2)CC1 (centres unmarked) [KTZ, Ketoconazole]
- AUC24 increased by ([3]; in vivo): 105-117%
- Cmax, % change ([3]; in vivo): < 20%

Compound: Cc1cccc(C)c1OCC(=O)N[C@@H](Cc1ccccc1)[C@@H](O)C[C@H](Cc1ccccc1)NC(=O)[C@H](C(C)C)N1CCCNC1=O [LPV, Lopinavir]
- Cmax, AUC and Ctrough, % change [1]: ≤ 15%
- Ctrough versus values observed with LPV/r 400/100 mg BID administered alone [1, 11]: comparable
- Ctrough, % higher [1, 11]: 218%

Compound: CC[C@H](C)C(=O)O[C@H]1C[C@H](O)C=C2C=C[C@H](C)[C@H](CC[C@@H](O)C[C@@H](O)CC(=O)O)[C@H]21 [Pravastatin]
- AUC, % higher ([6]; statin with 3D or 2D): ~80%
- Cmax, % higher ([6]; statin with 3D or 2D): about 40%

Compound: Cc1nnc(C(=O)NC(C)(C)c2nc(C(=O)NCc3ccc(F)cc3)c(O)c(=O)n2C)o1 [RAL, Raltegravir]
- treatment discontinuations / premature discontinuation due to AE ([5]; co-administration of 3D regimen with HIV-1 ARV): no treatment discontinuations
- tolerability ([5]; co-administration with 3D regimen): generally well tolerated

Compound: Cc1cc(/C=C/C#N)cc(C)c1Nc1ccnc(Nc2ccc(C#N)cc2)n1 [RPV, Rilpivirine]
- Cmax, fold higher than Cmax with RPV 25 mg QD [7]: approximately 2.6 fold
- QTcF increase [7]: 10.7 ms

Compound: CC(C)c1nc(N(C)S(C)(=O)=O)nc(-c2ccc(F)cc2)c1/C=C/[C@@H](O)C[C@@H](O)CC(=O)O [Rosuvastatin]
- AUC, % higher ([6]; statin with 2D): 32%
- Cmax, % higher ([6]; statin with 2D): 161%
- AUC, % higher ([6]; statin with 3D): 159%
- Cmax, % higher ([6]; statin with 3D): 613%

Compound: C[C@H]1O[C@@H](O[C@H]2[C@@H](O)C[C@H](O[C@H]3[C@@H](O)C[C@H](O[C@H]4CC[C@@]5(C)[C@H](CC[C@@H]6[C@@H]5C[C@@H](O)[C@]5(C)[C@@H](C7=CC(=O)OC7)CC[C@]65O)C4)O[C@@H]3C)O[C@@H]2C)C[C@H](O)[C@@H]1O [digoxin]
- exposures (Cmax and AUCinf) increased by ([8]; digoxin 0.5 mg single dose with 2D): 24-58%
- exposures (Cmax and AUCinf) increased by ([8]; digoxin 0.5 mg single dose with 2D, listed as Digoxin): ≤ 58%
- exposures (Cmax and AUCinf) increased by ([8]; digoxin 0.5 mg single dose with 3D): 15-16%
- exposures (Cmax and AUCinf) increased by ([8]; digoxin 0.5 mg single dose with 3D, listed as Digoxin): ≤ 16%

Compound: CC(C)c1nc(CN(C)C(=O)N[C@H](C(=O)N[C@@H](Cc2ccccc2)C[C@H](O)[C@H](Cc2ccccc2)NC(=O)OCc2cncs2)C(C)C)cs1 [ritonavir]
- Exposures increased by [3, 10]: 27-57%
- exposures (Cmax and AUCτ), % change [5]: ±17%
- exposures (Cmax and AUCτ), effect [5]: not affected

Compound: C=CC[C@@H]1/C=C(\C)C[C@H](C)C[C@H](OC)[C@H]2O[C@@](O)(C(=O)C(=O)N3CCCC[C@H]3C(=O)O[C@H](/C(C)=C/[C@@H]3CC[C@@H](O)[C@H](OC)C3)[C@H](C)[C@@H](O)CC1=O)[C@H](C)C[C@@H]2OC [tacrolimus]
- tacrolimus DN_AUCinf, fold of tacrolimus exposure when administered alone [9]: 57-86 fold
- tacrolimus DN_Cmax, fold of tacrolimus exposure when administered alone [9]: 3.7-4.3 fold
- tacrolimus DN_C24, fold of tacrolimus exposure when administered alone ([9]; 24 h): 17-25 fold
